This is an account of results in US10583109B2, “Use of silver(I) complexes as anticancer agents” (University of Johannesburg, priority 2012, dated 2020).

The subject of data set [1] is SNO-oesophageal cancer cells. Put plainly: Morphological features of SNO-oesophageal cancer cells by inverse light microscopy. Conditions: 24 hours of treatment. Type of data set: cell-based. The procedure:
Morphological studies were done by means of an Axiovert 25 inverted microscope (Carl Zeiss, Göttingen, Germany) with Axio Vision 3.1 software (Carl Zeiss, Göttingen, Germany) using an magnification of 100×.
After 24 hours of treatment with complexes (1)-(5) including their ligands the cells were examined under said Axiovert 25 inverted light microscope. This was done to determine how the complexes of the present invention influence morphology which was compared to 100 μM Cisplatin (apoptotic control) and 15% H2O2 (necrotic control).
Light microscope images indicating the morphology of the differentially treated SNO-oesophageal cancer cells is shown in FIG. 8. An untreated control (a) including 100 μM Cisplatin (b), an apoptotic control and 15% H2O2 (c), and a necrotic control was included. Cells were treated with 10 μM silver(I) thiocyanate phosphine complexes (1)-(5) as well as their separate ligands (Ligand-1 to Ligand-5, respectively) (FIGS. 8d to 8m). Black arrows represent signs of apoptosis, while the white arrows represent signs of necrosis.
An Axiovert 25 inverted microscope was used to examine if these complexes affect the morphological features of the malignant cells in any other way. This was done at a magnification of 100× with the use of Axio Version 3.1 software (Carl Zeiss, Gottingen, Germany).
Morphological studies where done after 24 hours of treatment to determine how these compounds influence/change specific features of the malignant SNO-oesophageal cancer cells, compared to the untreated (UC) and 1% DMSO vehicle control. The treated cancer cells including their controls were examined under an Axiovert 25 inverted light microscope (Carl Zeiss, Göttingen, Germany) with Axio Vision 3.1 software (Carl Zeiss, Göttingen, Germany) using a 100× magnification. In FIG. 19, the morphology of the different controls including Ligand-10 and complexes (10)-(12) are represented. To predict the targeting mechanisms of these compounds, the treated cells were compared to 100 μM Cisplatin (apoptotic control) and 25% H2O2 (necrotic control).

The subject of data set [2] is MCF-7 breast cancer cells. Briefly: AlamarBlue viability and proliferation assay of MCF-7 breast cancer cells. The class given is cell-based, human. As to the method:
For the biological studies, MCF-7 breast cancer cells were obtained from an immortal cell line from human adenocarcinoma from (primary site) mammary gland and (metastatic site) pleural effusion (ATCC no HTB-22).
MCF-7 breast cancer cells were cultured in Dulbecco's modified Eagle's medium (DMEM), 13.53 g/L with sodium bicarbonate (NaHCO3), 3.7 g/L supplemented with 10% foetal bovine serum (FBS), 1% gentamycin and 5% Penicillin/Streptomycin/Fungizone in 75 cm^3 culture flasks. Cells were subcultured twice a week and incubated at 37° C. with 5% CO2 in a humidified atmosphere. Hanks balanced salt solution (HBSS), supplemented DMEM media and trypsin versene were warmed to 37° C. prior to subculturing. Cells were washed twice with 10 ml Hanks balanced salt solution for 1 minute and were then incubated for 4.5 to 5 minutes at 37° C. with 6 ml trypsin versene to remove the cells from the culture flask. To inactivate the trypsin versene, 10 ml supplemented DMEM was added and the cells were pelleted by centrifugation at 1028 g for 4 minutes with an Allegra™ 25R Centrifuge. The pellet was resuspended in 1 ml supplemented DMEM and 500 μl of the cell suspension was then added to 25 ml of supplemented DMEM media in 75 cm^3 culture flasks.
MCF-7 breast cancer cells, in terms of a first study, and SNO-oesophageal cancer cells, in terms of a second study, were treated with 10 μM silverthiocyanide complexes (1)-(5), as well as their ligands (Ligand-1 to Ligand-5) over a 24 hour incubation period. […] An untreated negative control (UT) was exposed to similar conditions as the treated cells and monitored during the experimental study.
The AlamarBlue® viability and proliferation assay of complexes (1)-(5) for the MCF-7 breast cancer cells is depicted in FIGS. 1A to 1F. The percentage viability of control samples determined by the AlamarBlue® viability and proliferation assay is depicted in FIG. 1A. […] A significant difference (P<0.001) between the control and the treated samples was calculated using Student's T-test and is indicated by an asterisk.
This Figure depicts the percentage viability of MCF-7 cells treated with various concentrations of complex (1) as determined by the AlamarBlue® viability and proliferation assay. […] The asterisk indicates a significant difference between a sample and the control (P<0.001) as calculated with Student's T-test.
FIG. 1C to FIG. 1F represent the dose dependant studies of complexes (2) to (5), respectively. In each of these Figures, the percentage viability of MCF-7 cells treated with various concentrations of complexes (2) to (5) was determined by the AlamarBlue® viability and proliferation assay. […] The asterisk indicates a significant difference between a sample and the control (P<0.001) as calculated with Student's T-test. […]
In general terms: Resazurin is reduced to fluorescent resorufin, in cell work by metabolically active cells.

Data set [3] relates to SNO-oesophageal cancer cells. The class given is cell-based. The conditions noted are these: 14 μM, 24 hour treatment.

With `Cc1ccc([P+](c2ccc(C)cc2)(c2ccc(C)cc2)[Ag]2([P+](c3ccc(C)cc3)(c3ccc(C)cc3)c3ccc(C)cc3)[N+]#C[S][Ag]([P+](c3ccc(C)cc3)(c3ccc(C)cc3)c3ccc(C)cc3)([P+](c3ccc(C)cc3)(c3ccc(C)cc3)c3ccc(C)cc3)[N+]#C[S]2)cc1` [complex (2), [AgSCN{P(4-MeC6H4)3}2]2], the “necrotic cell death (morphology)” value in data set [1] (10 μM) is given as “Necrotic cell death was also observed”. In data set [2] (10 μM, 24 hours after treatment, compared to the untreated control), the “decrease in viability and proliferation” value is roughly 70%.
On to `Clc1ccc([P+](c2ccc(Cl)cc2)(c2ccc(Cl)cc2)[Ag]2([P+](c3ccc(Cl)cc3)(c3ccc(Cl)cc3)c3ccc(Cl)cc3)[N+]#C[S][Ag]([P+](c3ccc(Cl)cc3)(c3ccc(Cl)cc3)c3ccc(Cl)cc3)([P+](c3ccc(Cl)cc3)(c3ccc(Cl)cc3)c3ccc(Cl)cc3)[N+]#C[S]2)cc1` [complex (4), [AgSCN{P(4-ClC6H4)3}2]2], for which the “cytotoxic activity (ranking)” value in data set [2] (MCF-7 cells) is listed as “strongest”.
Turning to `[Cl][Ag]([PH](c1ccccc1)(c1ccccc1)c1ccccc1)([PH](c1ccccc1)(c1ccccc1)c1ccccc1)[PH](c1ccccc1)(c1ccccc1)c1ccccc1` [complex (10), AgCl(PPh3)3], in data set [3], the “cancer cell death compared to the vehicle control” value is on record as “significantly induced cancer cell death”. In data set [1] (14 μM), the “necrotic cell death (morphology)” value was “Minimal necrotic cell death” and the “signs of apoptosis / cell death (morphology)” value is listed as “multiple signs of apoptosis”.
Consider AgCN(PPh3)3 [complex (12)], for which the “cancer cell death compared to the vehicle control” value in data set [3] is “significantly induced cancer cell death”. Also, in data set [1] (14 μM), the “necrotic cell death (morphology)” value was “Minimal necrotic cell death” and the “signs of apoptosis / cell death (morphology)” value is given as “multiple signs of apoptosis”.
